Among the data in patent US20230112641A1, “METHODS OF TREATING DIARRHEA OR INFLAMMATORY CONDITIONS OF THE GUT” (ABBOTT LABORATORIES, priority 2020, published 2023) are EC50 values, retold here.

The assay has as its target T1, human GPR109A (Homo sapiens, UniProt Q8TDS4).
T1 construct: expressed in transfected cells
Description: Intracellular cAMP levels in forskolin-treated GPR109A-expressing colonic cells, measured by fluorescence (cAMP-Glo Assay). In kind it is cell-based. The note with it: cAMP reduction in forskolin-treated cells; read-out: EC50 to activate the GPR109A receptors.
Description: The activity of GI-coupled receptors like GPR109A is normally assessed by showing a reduction in cellular levels of cAMP in forskolin-treated cells. This is normally done using the commercially available kit, cAMP-Glo™ Assay. […] When a GI-coupled receptor is activated in forskolin-treated cells, cAMP levels will go up.

T1 sequence (Q8TDS4 whole entry): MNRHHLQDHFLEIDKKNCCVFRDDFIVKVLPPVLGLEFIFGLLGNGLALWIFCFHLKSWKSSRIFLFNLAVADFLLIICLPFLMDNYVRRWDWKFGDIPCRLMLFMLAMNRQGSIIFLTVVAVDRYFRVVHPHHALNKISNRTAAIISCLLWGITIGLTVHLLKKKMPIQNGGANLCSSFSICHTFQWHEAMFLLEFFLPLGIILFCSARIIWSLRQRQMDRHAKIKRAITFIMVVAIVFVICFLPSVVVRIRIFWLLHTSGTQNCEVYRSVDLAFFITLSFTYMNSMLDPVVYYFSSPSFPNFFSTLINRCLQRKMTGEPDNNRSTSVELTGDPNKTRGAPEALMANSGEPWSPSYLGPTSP

As to `CC(C)(O)CC(=O)O` [HMB, beta-hydroxy-beta-methylbutyrate], the EC50 lay within 250 to 2500 µM.
